The CheMixHub viscosity set

Test: xn = mol fraction of the nth substance listed

C=C(C)C(=O)OC + CCCCOCCCC
viscosity [mPa·s], 101.3 kPa
Conditions	298.15 K	308.15 K
x1 = 0.0446	0.633	0.581
x1 = 0.1479	0.616	0.561
x1 = 0.2442	0.603	0.546
x1 = 0.3388	0.593	0.532
x1 = 0.4495	0.584	0.519
x1 = 0.4924	0.581	0.515
x1 = 0.5489	0.579	0.51
x1 = 0.6504	0.576	0.502
x1 = 0.7489	0.575	0.496
x1 = 0.8501	0.577	0.492
x1 = 0.9428	0.581	0.49

C=C(C)C(=O)OC + CO
viscosity [mPa·s], 101 kPa
Conditions	x2 = 0.1152	x2 = 0.2092	x2 = 0.3024	x2 = 0.4008	x2 = 0.5011	x2 = 0.6041	x2 = 0.7013	x2 = 0.8003	x2 = 0.9033
293.15 K	0.5752	0.5665	0.5622	0.5592	0.5546	0.5576	0.5612	0.5709	0.5792
298.15 K	0.5416	0.5329	0.5294	0.5266	0.5222	0.5232	0.5269	0.5357	0.5425
303.15 K	0.5126	0.5046	0.5012	0.4973	0.4928	0.4944	0.4965	0.5036	0.5088
308.15 K	0.4841	0.4783	0.4739	0.4705	0.4665	0.4673	0.4689	0.4748	0.4792
313.15 K	0.4611	0.4552	0.4511	0.4474	0.4428	0.4435	0.4441	0.4493	0.4529
318.15 K	0.4391	0.4335	0.4297	0.4261	0.4212	0.4228	0.4243	0.4259	0.4285
323.15 K	0.4195	0.4138	0.4101	0.4063	0.4022	0.4031	0.4043	0.4057	0.4065

C[N+](C)(C)CCC[N+]1(C)CCCCC1.N#C[N-]C#N.N#C[N-]C#N + CCO
viscosity [mPa·s], 100 kPa
Conditions	293.15 K	303.15 K	323.15 K
x1 = 0.5002	280.5	–	70.55
x1 = 0.7998	–	828.4	–

[Sn] + [Ga]
323 K, 100 kPa
Conditions	viscosity [mPa·s]
x1 = 0.085	1.693
x1 = 0.164	2.223
x1 = 0.37	3.637
x1 = 0.638	5.381
x1 = 0.841	6.576

ClCCCCCCCl + C1CCCCC1
viscosity [mPa·s], 101 kPa
Conditions	x1 = 0.07055	x1 = 0.1468	x1 = 0.2554	x1 = 0.3491	x1 = 0.4438	x1 = 0.5446	x1 = 0.6382	x1 = 0.7449	x1 = 0.8743
308.15 K	0.796	0.835	0.893	0.948	1.022	1.113	1.206	1.322	1.467
313.15 K	0.721	0.759	0.818	0.873	0.947	1.036	1.126	1.246	1.387
318.15 K	0.681	0.711	0.76	0.804	0.865	0.942	1.027	1.133	1.259
